Series [1] concerns Escherichia coli (ATCC 25922). Put plainly: Antibacterial hydrophobic assay (resazurin). Type of series: cell-based. Conditions: E. coli, 50% inhibition of bacterial growth. The text has this:
(§1) We tested the antibacterial activities of T. vulgare essential oil and compounds against gram-negative Escherichia coli (ATCC bacteria 25922) and gram-positive Staphylococcus aureus (ATCC bacteria 25923) using the antibacterial hydrophobic assay as described by Côté et al.. This new method was developed and used in this work as classical methods including disc diffusion and microdilution assays are sometimes inefficient for testing a matrix or compounds of a hydrophobic nature. Briefly, after microorganisms passed 16–18 h at 37 °C in a nutrient broth base (Difco), we transferred 20 µL methanol containing growing concentrations of essential oil and compounds (3.1 to 200 µg·mL^−1) onto nutrient agar of 96-well plates. We then added bacterial strains having a concentration of 5 × 10^3 colony forming units (CFU) per mL of nutrient broth. […] The blank consisted of culture medium only and was subtracted from all subsequent measurements of every other well. The 96-well plates were then incubated at 37 °C for 5 h to foster bacterial growth. We then added 100 µL of resazurin sodium salt solution having a concentration of 50 µg·mL^−1 (Sigma R-2127, St-Louis, MO, USA) to each well.
(Alamar Blue is a resazurin reagent that responds to reducing activity.)

In series [2] the test system is Staphylococcus aureus (ATCC 25923). Briefly: Antibacterial hydrophobic assay (resazurin). Format: cell-based. The note with it: S. aureus, 50% inhibition of bacterial growth.
Description: as §1

Series [3] has as its system human skin fibroblasts WS1. Briefly: Cell-based antioxidant DCFH-DA assay (tert-butylhydroperoxide-induced DCFH oxidation). Conditions: inhibition of DCFH oxidation induced by tert-butylhydroperoxide, WS1 cells. How it is done:
Antioxidant activity was evaluated using the DCFH-DA assay as described by Girard-Lalancette et al.. To assess antioxidant activity, we incubated the human skin fibroblasts WS1 for 1 h with a growing concentration of essential oil or dissolved compounds in DMSO. We then added 100 µL of 200 µM tert-butylhydroperoxide and immediately measured fluorescence as well as again after 90 min later. Measurements were performed on an automated plate reader (Fluoroskan Ascent FL, Labsystems, Milford, MA, USA) using an excitation wavelength of 485 nm and an emission wavelength of 530 nm.

The test system of series [4] is NO production in murine macrophage RAW 264.7 cells. Briefly: Inhibition of NO production in LPS-stimulated RAW 264.7 macrophages (Griess reaction). The note with it: inhibition of NO production, RAW 264.7, 100 ng·mL^−1 LPS, 24 h. Format: cell-based. The protocol:
We evaluated the inhibition NO production by T. vulgare essential oil and compounds as described by Legault et al.. Control L-NAME was used as positive control. Murine macrophage RAW 264.7 cells were incubated with essential oil or dissolved compounds in DMSO and then stimulated with 100 ng·mL^−1 LPS and incubated at 37 °C. After 24 h, we collected the cell-free supernatants and immediately determined the NO concentration using the Griess reaction. We read the absorbance at 540 nm using an automated Varioskan Ascent plate reader (Labsystems, Milford, MA, USA), and quantified the presence of nitrite by comparing with a NaNO2 standard curve.
(Griess reagent forms a coloured azo dye with nitrite.)

Series [5] concerns human colon adenocarcinoma DLD-1. Put plainly: Cytotoxic assay, resazurin reduction test, 48 h. Type of series: cell-based. Conditions: DLD-1, 48 h. The protocol:
(§2) We plated in 96-well microplates—each containing a 100 µL culture medium—exponentially growing cells of human skin fibroblasts WS1, human HaCaT keratinocytes, human lung carcinoma A-549, and human colon adenocarcinoma DLD-1 at a density of 5 × 10^3 cells per well (Costar, Corning Inc., Lowell, MA, USA). The cells were allowed to adhere for 16 h before treatment. We then treated cells with T. vulgare essential oil or dissolved compounds in DMSO. The final concentration of DMSO in the culture medium was 0.5% (v/v) to avoid solvent toxicity. After 48 h, we assessed the cytotoxicity using the resazurin reduction test. Fluorescence was measured on an automated Fluoroskan Ascent FL^TM plate reader (Labsystems, Milford, MA, USA) using an excitation wavelength of 530 nm and an emission wavelength of 590 nm.

Series [6] concerns human lung carcinoma A-549. Briefly: Cytotoxic assay, resazurin reduction test, 48 h. Type of series: cell-based. Conditions: A-549, 48 h. How it is done: as §2
Series [7] deals with human skin fibroblasts WS1. Put plainly: Cytotoxic assay, resazurin reduction test, 48 h. The note with it: WS1, 48 h. Type of series: cell-based. How it is done:
as §2

Structures are written as SMILES.

Consider `C/C1=C\CC/C(C)=C/CC(C)(C)/C=C/C1` [α-Humulene], for which the “Antibacterial IC50 E. coli” value in series [1] is greater than 200 µg/mL. In series [2], the “Antibacterial IC50 S. aureus” value is greater than 200 µg/mL. The “Antioxidant IC50” value in series [3] is greater than 200 µg/mL. The “Anti-Inflammation IC50” value in series [4] is 15 ± 2 µg/mL. Moreover, the “Cytotoxicity IC50 DLD1” value in series [5] turned out to be 43 ± 3 µg/mL. In addition, the “Cytotoxicity IC50 A549” value in series [6] was found to be 28 ± 1 µg/mL. For the same compound, the “Cytotoxicity IC50 WS1” value in series [7] came out at 24 ± 3 µg/mL.

The record behind these values is paper PMC5590070, “Anti-Inflammatory, Antioxidant, Antibiotic, and Cytotoxic Activities of Tanacetum vulgare L. Essential Oil and Its Constituents” (Medicines, 2017).
